Read-outs that look alike come from different tables or passages of the source.
Experiments:
[1] = test system: classical migraine (migraine with an aura); assay: Clinical cases: treatment of classical migraine (migraine with an aura); type: in vivo, human patient; conditions: 2nd series, 50 mg nicotinamide alone orally twice a day
Protocol: 1st case—a person with a classical migraine (or a migraine with an aura). The patient had been suffering from classical migraine symptoms for 30 years. Initially, the symptoms were located in the right temporal region and later spread to the top and to the left temple with characteristic pulsations, accompanied by photophobia, vertigo and buzzing ears. The attacks lasted for about 10 days on a monthly basis.
Later, during a migraine attack, the patient started a treatment based on 50 mg of nicotinamide+2.5 mg of riboflavin taken orally twice a day. […] During this period the patient had completely suspended the old therapy. They continued with the new treatment, according to the present invention, for another 7 days to then temporarily suspend it. Later on, the dosage was halved for 10 days a month for preventive purposes.
1st case—person one with a classical migraine (or migraine with an aura). The patient had been suffering from classical migraine symptoms for 15 years and had photophobia, flashing scotoma and vertigo. […] The symptoms were located on the right side, occurred about twice a month and lasted a week, on average. When suffering from migraines the patient could not perform any activity. The acute episodes were preceded by photophobia, buzzing ears and visual disorders (scotoma). […]

[2] = test system: common migraine (migraine without an aura); assay: Clinical cases: treatment of common migraine (migraine without an aura); type: in vivo, human patient; conditions: 2nd series, 3rd case; 50 mg nicotinamide alone orally twice a day
[3] = test system: complicated migraine; assay: Clinical cases: treatment of complicated migraine; type: in vivo, human patient; conditions: 2nd series, 2nd case; 50 mg nicotinamide alone orally twice a day
[4] = test system: cluster headaches; assay: Clinical cases: treatment of cluster headaches; type: in vivo, human patient; conditions: 2nd series, 4th case; 50 mg nicotinamide alone orally twice a day
Protocol: 4th case—a person with cluster headaches. The patient had been suffering from nocturnal headaches for about 15 years. The headaches started about 3 hours after sleep onset and presented a left orbital pain, lachrymation, nasal congestion and an oedema of the left cheek.
They continued with the therapy for another 15 days and then the dosage was halved and treatment continued for 15 days a month.
4th case—a person with cluster headaches. The patient suffered from cluster headaches that made them wake up in the night with lacerating head pains. The pains were accompanied by lachrymation and rhinorrhea.

[5] = test system: primary headaches (common, classical, complicated migraine, cluster headache); assay: Clinical experimentation in primary headache forms, overall statements; conditions: single agent; for effectiveness in combating the forms of headache considered: systemic administration at the typical dosage used for pellagra
[6] = test system: primary headaches (common, classical, complicated migraine, cluster headache); conditions: human, in vivo

| secondary reactions reported for high doses ([5]; systemic administration in doses well below those for hypercholesterolemy) | secondary reactions reported for high doses [6] | Compound | time until migraine symptoms attenuated ([1]; 1st case one) [days] | complete disappearance of migraine symptoms ([1]; 1st case) | time until the migraine returned (lesser intensity) under continued treatment ([1]; 1st case) | time until the migraine was partially attenuated [2] | time until the problem was attenuated [3] [days] | time until the headaches attenuated [4] [days] | effectiveness in combating the forms of headache considered [5] |
| --- | --- | --- | --- | --- | --- | --- | --- | --- | --- |
| does not lead to the secondary reactions | – | NC(=O)c1cccnc1 [nicotinamide] | 5 | did not disappear completely | about 10 days | about 5 days | 6 | 5 to 6 | not very effective |
| – | does not lead to the secondary reactions | O=C(O)c1cccnc1 [nicotinic acid, 3-pyridincarboxylic acid] | – | – | – | – | – | – | not very effective |

— patent publication US7456291B2, “Use of a vitamin combination for the treatment of primary headaches” (priority 2000, dated 2008)
